Activity calls are given as the source filed them. Unless noted, no cut-off for these calls is given here.
What was measured:
[1] = viability loss in Vero cells – cell-based, purified and synthesized samples, set 8, cytotoxicity control for M. tuberculosis inhibitor project (AID 602431); assay type: functional; details: Mycobacterium tuberculosis
[2] = HepG2 cell cytotoxicity, cytotoxicity control, set 6 (AID 602432); assay type: functional; details: Mycobacterium tuberculosis
[3] = THP-1 cell cytotoxicity, cytotoxicity control, set 6 (AID 602433); assay type: functional; details: Mycobacterium tuberculosis
[4] = target: T1, Sentrin-specific protease 6 (Homo sapiens, UniProt Q9GZR1); assay: SAR Analysis of small molecule inhibitors of Sentrin-specific protease 6 (SENP6) using a Luminescent assay. [Related pubchem assays (depositor defined):AID2582, AID2599]; assay type: functional
T1 sequence (Q9GZR1 whole entry): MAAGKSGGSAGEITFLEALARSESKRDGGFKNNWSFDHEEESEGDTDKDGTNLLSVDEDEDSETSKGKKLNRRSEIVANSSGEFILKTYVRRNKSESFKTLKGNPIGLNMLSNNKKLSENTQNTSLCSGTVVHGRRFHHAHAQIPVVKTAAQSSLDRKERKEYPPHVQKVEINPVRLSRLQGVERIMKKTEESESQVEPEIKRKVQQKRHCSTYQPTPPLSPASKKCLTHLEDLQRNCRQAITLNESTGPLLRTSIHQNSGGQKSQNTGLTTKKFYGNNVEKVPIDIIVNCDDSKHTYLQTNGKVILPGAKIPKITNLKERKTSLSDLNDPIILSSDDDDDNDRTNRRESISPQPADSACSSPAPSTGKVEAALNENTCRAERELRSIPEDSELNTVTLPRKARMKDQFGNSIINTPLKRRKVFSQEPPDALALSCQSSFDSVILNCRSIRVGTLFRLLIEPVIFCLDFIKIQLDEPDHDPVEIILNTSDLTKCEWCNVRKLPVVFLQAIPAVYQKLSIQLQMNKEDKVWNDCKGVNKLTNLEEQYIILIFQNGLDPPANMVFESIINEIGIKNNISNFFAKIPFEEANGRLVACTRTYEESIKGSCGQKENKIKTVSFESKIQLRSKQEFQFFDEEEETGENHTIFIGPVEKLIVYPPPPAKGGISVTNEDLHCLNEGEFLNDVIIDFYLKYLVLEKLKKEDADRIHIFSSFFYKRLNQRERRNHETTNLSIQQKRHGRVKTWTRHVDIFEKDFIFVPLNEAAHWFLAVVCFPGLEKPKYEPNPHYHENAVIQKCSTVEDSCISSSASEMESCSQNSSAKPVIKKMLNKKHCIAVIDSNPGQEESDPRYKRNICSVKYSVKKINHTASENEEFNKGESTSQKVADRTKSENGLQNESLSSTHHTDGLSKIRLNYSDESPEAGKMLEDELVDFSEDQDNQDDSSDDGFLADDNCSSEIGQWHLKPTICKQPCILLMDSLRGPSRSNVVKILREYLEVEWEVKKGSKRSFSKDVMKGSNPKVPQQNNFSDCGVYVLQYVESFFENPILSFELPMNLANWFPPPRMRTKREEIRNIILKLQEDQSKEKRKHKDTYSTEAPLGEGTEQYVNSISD

[5] = target: T2, Sentrin-specific protease 8 (Homo sapiens, UniProt Q96LD8); assay: inhibition of human SENP8 cleavage activity – biochemical, luminescence, SAR follow-up (AID 504501); assay type: functional
T2 sequence (Q96LD8 whole entry): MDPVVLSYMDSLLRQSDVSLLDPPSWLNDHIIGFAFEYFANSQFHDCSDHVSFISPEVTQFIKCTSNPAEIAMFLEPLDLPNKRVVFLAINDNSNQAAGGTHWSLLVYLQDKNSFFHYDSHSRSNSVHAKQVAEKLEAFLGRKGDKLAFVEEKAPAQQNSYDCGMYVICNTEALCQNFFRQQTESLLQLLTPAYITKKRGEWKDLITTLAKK

Caspase-3 = target: T3, Caspase-3 (Homo sapiens, UniProt P42574); assay: SAR Analysis of small molecule inhibitors of Sentrin-specific proteases (SENPs) using a Caspase-3 Selectivity assay. [Related pubchem assays (depositor defined):AID2540, AID2599, AID434973, AID489001]; assay type: functional
T3 sequence (P42574 whole entry): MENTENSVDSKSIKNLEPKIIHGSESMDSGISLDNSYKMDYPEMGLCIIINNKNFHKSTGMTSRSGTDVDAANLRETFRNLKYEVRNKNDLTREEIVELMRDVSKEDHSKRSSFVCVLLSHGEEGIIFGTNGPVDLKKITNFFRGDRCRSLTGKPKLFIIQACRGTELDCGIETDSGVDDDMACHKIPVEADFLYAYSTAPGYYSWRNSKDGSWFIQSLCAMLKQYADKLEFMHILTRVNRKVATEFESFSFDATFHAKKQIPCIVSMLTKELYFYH

[6] = target: T4, Sentrin-specific protease 7 (Homo sapiens, UniProt Q9BQF6); assay: inhibition of human SENP7 cleavage activity – biochemical, luminescence, SAR follow-up (AID 504497); assay type: functional
T4 sequence (Q9BQF6 whole entry): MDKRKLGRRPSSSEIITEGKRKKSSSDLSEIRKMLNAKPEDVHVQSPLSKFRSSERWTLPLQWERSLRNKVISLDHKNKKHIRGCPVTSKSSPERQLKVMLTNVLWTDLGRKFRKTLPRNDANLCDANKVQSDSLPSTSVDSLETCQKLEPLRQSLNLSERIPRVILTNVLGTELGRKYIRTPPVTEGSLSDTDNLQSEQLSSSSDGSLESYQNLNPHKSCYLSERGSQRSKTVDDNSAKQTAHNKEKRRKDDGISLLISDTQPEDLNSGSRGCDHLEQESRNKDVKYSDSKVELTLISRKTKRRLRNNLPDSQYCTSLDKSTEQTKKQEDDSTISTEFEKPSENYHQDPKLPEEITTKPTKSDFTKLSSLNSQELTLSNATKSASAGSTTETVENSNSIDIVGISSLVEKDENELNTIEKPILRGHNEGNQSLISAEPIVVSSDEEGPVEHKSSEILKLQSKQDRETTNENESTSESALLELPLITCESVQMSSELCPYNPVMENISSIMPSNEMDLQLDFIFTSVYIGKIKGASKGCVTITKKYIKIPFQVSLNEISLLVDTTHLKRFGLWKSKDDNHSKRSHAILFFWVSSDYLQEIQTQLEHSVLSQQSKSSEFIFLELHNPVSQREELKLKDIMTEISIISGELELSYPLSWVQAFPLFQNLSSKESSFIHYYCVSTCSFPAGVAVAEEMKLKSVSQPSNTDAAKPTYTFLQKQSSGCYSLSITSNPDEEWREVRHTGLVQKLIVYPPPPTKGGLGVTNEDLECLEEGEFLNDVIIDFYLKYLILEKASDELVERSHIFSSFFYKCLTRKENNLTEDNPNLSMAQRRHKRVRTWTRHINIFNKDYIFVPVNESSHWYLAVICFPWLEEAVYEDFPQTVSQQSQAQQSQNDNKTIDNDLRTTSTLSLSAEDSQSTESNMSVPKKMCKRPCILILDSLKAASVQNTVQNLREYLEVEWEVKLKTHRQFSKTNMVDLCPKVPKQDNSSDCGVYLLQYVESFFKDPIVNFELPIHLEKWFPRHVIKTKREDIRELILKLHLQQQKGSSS

[7] = Mcl1-dependent cancer cell viability – HMC-1-8 cells, luminescence, dry powder, selectivity assay for A1 inhibitor project, dose response (AID 504415); assay type: functional, cell-based; details: Homo sapiens
[8] = target: T5, High affinity choline transporter 1 (Homo sapiens, UniProt Q9GZV3); assay: human choline transporter potentiators, potency – cell-based, 10-point CRC, membrane potential dye, dose response (AID 602376); assay type: functional
T5 sequence (Q9GZV3 whole entry): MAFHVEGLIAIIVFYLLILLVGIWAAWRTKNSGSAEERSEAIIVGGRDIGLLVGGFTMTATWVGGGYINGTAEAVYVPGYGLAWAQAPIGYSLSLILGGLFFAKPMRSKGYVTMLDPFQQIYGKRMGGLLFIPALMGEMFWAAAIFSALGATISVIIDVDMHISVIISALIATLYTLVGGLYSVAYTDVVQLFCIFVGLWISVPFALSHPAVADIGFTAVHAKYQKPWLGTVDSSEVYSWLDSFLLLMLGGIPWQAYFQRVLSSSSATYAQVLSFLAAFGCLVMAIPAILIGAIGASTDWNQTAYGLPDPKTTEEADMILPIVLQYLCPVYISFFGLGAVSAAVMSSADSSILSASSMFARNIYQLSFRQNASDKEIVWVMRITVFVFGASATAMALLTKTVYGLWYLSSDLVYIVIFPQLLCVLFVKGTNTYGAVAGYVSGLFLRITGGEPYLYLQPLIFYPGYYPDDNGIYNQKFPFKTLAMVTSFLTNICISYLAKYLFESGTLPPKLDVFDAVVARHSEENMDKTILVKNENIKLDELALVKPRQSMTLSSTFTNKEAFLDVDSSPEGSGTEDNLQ

For `COc1ccc(N2CCN(C(=O)c3ccc(CNC(=O)NCc4ccc(Cl)cc4)cc3)CC2)cc1`, the CC50 [1] was 29.4 µM (active), the CC50 [2] was > 50 µM (active) and the CC50 [3] was > 100 µM (inconclusive).

In the case of `CC(C)(C)CC(=O)Nc1ccc(-c2nc3cc(Cl)ccc3s2)cc1`, the IC50 [4] is reported as > 99 µM (inactive), the IC50 [5] is reported as > 99 µM (inactive) and the IC50 (Caspase-3) is reported as > 99 µM (inactive). The IC50 [6] was > 99 µM (inactive).

For `Cn1c(=O)c([N+](=O)[O-])c(Nc2ccc(Cl)cc2)c2ccccc21`, the AC50 [7] was > 350 µM (inactive).

In the case of `CC(C)C(=O)N1CCN(c2ccccc2NC(=O)c2ccc(C#N)cc2F)CC1`, the EC50 [8] is reported as 12.9 µM (active).

— ChEMBL document CHEMBL1201862, “PubChem BioAssay data set” (2004)
